Results reported in patent US9233111B2, “Pyrrolo pyrimidine derivatives” (NOVARTIS AG, priority 2011, dated 2016).

What was measured:
[1] = biological target: full-length human recombinant BTK (Homo sapiens (Human), UniProt Q06187); assay: Inhibition of Btk enzymatic activity (biochemical enzyme assay, Caliper); details: 30° C., 60 minutes
Description: The inhibitory activity of the present compounds against Btk was assessed in a biochemical enzyme assay. Assay plates in 384 well format were prepared with 8-point serial dilutions for the test compounds on a Thermo CatX workstation equipped with a Innovadyne Nanodrop Express. The assay plates were prepared by addition of 50 nl per well of compound solution in 90% DMSO. The kinase reactions were started by stepwise addition of 4.5 μl per well of peptide/ATP-solution (4 μM FITC-Ahx-[…]-NH2, 164 μM ATP) in kinase buffer (50 mM HEPES, pH 7.5, 1 mM DTT, 0.02% Tween20, 0.02% BSA, 0.6% DMSO, 10 mM beta-glycerophosphate, and 10 μM sodium orthovanadate, 18 mM MgCl2, 1 mM MnCl2) and 4.5 μl per well of enzyme solution (6.4 nM full-length human recombinant BTK) in kinase buffer. Kinase reactions were incubated at 30° C. for 60 minutes and subsequently terminated by addition of 16 μl per well of stop solution (100 mM HEPES pH 7.5, 5% DMSO, 0.1% Caliper coating reagent, 10 mM EDTA, and 0.015% Brij35). Kinase reactions were analyzed on a Caliper LC3000 workstation by separating phosphorylated and unphosphorylated peptides and kinase activities were calculated from the amounts of newly formed phospho-peptide. Inhibition data were calculated by comparison to control reactions without enzyme (100% inhibition) and without inhibitors (0% inhibition). The concentration of inhibitor required for 50% inhibition (IC50) was calculated from the inhibition in response to inhibitor concentrations.

Btk [2] = biological target: Btk (Rattus norvegicus, UniProt Q5S255); assay: Inhibition of Btk activity in blood: in vitro B cell activation assay (CD86) in rat whole blood; format: cell-based; details: Lewis rat whole blood diluted to 50%, anti-rat IgM + IL-4, CD86 on CD45RA positive B cells, 24 hours
Description: Alternatively, the inhibitory activity of the present compounds in blood was assessed in the following in vitro B cell activation assay. Whole blood was collected from the abdominal aorta of anaesthetized adult male Lewis rats and was anticoagulated with 100 U/ml sodium heparin. Blood was then diluted to 50% with high glucose DMEM (Amimed) supplemented with 100 U/ml penicillin, […] streptomycin, 2 mM L-glutamin, 50 mg/ml dextran 40 and 5% FCS (Fetaclone I, Gibco). Then, 190 μl prediluted blood was mixed in 96 well U-bottomed microtiter plates (Nunc) with 10 μl of serial dilutions of test compounds in DMSO. Cultures were incubated at 37° C., 5% CO2 for 1 hour, then 30 μl of rat IL-4 (Beckton-Dickinson, final concentration 5 ng/ml) and goat anti-rat IgM (Serotec, final concentration 15 ug/ml) were added and the cultures were incubated for 24 hours. Activation of B cells was measured by flow cytometry after staining for the B cell subset with PE-Cy5-labeled anti-ratCD45RA (Beckton-Dickinson) and for the activation marker CD86 (PE-labeled anti-rat CD86 (Beckton-Dickinson). All staining procedures were performed at RT for 30 min in the dark in 96-deep well V-bottomed microtiter plates (Corning) with BD Lysing Solution (Beckton-Dickinson). Cytometric data was acquired on a FACScalibur flow cytometer (BD Biosciences) and the subpopulation of lymphocytes were gated according to size and granularity and further analyzed for expression of CD45RA and the activation markers. Data for the inhibition of B cell activation were calculated from the percentage of cells positively stained for activation markers within the CD45RA positive population. Inhibition data were calculated by comparison to control cultures without anti-IgM and IL-4 (100% inhibition) and without inhibitors (0% inhibition). The concentration of inhibitor required for 50% inhibition (IC50) was calculated from the inhibition in response to inhibitor concentrations.

Btk [3] = biological target: Btk (Homo sapiens (Human), UniProt Q06187); assay: Inhibition of cellular Btk activity: Btk-dependent FcG receptor-induced IL-8 secretion in differentiated THP1 cells; format: cell-based; details: IgG-stimulated IL-8 secretion, 24 hours
Description: Alternatively, the present compounds might also be assessed for their capacity to inhibit Btk-dependent FcG receptor-induced IL-8 secretion in human cells. The human myeloid leukemia THP1 cell line (ATCC TIB202) was grown in RPMI 1640 medium supplemented with 10% FCS and 15 nM 1, 25-dihydroxy Vitamin D3 during 4 days before use to induced myeloid differentiation. A sufficient number of tissue-culture grade 384-well plates was coated with human IgG of unknown specificity by incubating overnight at 4° C. with 40 μl/well of a 50 μg/ml IgG solution in PBS. On the day of the experiment, plates were washed 5 times with 80 μl water on a Molecular Devices Aquamax DW4 plate washer. Solutions of the test compounds in 90% DMSO were added to each well on a Hamilton Microlab Star liquid handling station to 40 μl/well tissue culture medium and the total DMSO concentration was adjusted to 0.1%. Differentiated THP1 cells were then added in 40 μl/well to reach a final density of 5'000 cells/well in 80 μl culture medium. After 24 hours, IL-8 secretion was measured in the supernatant by the IL-8 HTRF assay following the protocol of the vendor (CisBio international). Inhibition data were calculated by comparison to control cultures without IgG stimulus enzyme (100% inhibition) and without inhibitors (0% inhibition). The concentration of inhibitor required for 50% inhibition (IC50) was calculated from the inhibition in response to inhibitor concentrations.

Chain of Btk (Rattus norvegicus, UniProt Q5S255) (Q5S255 1-660): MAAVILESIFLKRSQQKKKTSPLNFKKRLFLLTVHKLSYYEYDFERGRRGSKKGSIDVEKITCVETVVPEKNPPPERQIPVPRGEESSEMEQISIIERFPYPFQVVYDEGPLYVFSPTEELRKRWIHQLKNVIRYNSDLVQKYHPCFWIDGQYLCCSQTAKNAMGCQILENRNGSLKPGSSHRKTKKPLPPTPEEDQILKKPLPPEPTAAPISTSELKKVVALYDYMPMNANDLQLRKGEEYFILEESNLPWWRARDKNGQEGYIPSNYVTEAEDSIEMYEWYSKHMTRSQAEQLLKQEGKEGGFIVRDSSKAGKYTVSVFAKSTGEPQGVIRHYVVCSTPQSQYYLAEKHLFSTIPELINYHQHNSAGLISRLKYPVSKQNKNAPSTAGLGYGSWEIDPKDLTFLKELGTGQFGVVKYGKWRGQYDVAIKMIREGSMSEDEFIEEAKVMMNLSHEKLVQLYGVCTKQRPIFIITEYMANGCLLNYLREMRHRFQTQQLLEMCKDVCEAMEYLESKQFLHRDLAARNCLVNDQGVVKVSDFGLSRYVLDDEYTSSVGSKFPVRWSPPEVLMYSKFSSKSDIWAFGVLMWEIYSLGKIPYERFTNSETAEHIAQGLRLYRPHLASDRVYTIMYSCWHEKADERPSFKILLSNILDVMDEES
Chain of full-length human recombinant BTK (Q06187 whole entry): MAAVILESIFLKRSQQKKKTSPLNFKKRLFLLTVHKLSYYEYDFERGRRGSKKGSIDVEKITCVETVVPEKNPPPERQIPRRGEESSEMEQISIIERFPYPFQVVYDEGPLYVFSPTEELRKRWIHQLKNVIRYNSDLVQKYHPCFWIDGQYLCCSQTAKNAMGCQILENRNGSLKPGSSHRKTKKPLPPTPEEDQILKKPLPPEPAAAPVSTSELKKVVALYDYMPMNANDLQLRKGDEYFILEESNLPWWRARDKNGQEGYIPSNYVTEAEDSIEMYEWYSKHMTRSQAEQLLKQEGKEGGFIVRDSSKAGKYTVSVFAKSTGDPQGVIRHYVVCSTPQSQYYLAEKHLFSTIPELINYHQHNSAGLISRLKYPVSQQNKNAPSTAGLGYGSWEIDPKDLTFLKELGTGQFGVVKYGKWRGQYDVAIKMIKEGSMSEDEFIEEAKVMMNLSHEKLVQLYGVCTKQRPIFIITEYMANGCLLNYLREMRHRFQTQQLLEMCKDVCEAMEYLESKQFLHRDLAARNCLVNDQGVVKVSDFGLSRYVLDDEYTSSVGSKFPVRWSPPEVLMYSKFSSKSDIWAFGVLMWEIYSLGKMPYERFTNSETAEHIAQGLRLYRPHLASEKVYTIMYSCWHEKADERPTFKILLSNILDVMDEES
Chain of Btk (Homo sapiens (Human), UniProt Q06187) (Q06187 whole entry): as above

Q: For Cc1c(NC(=O)c2ccc3c(c2)OCC3(C)C)cc(F)cc1-c1ncnc2[nH]c(C3=CCN(C(=O)N(C)C)CC3)cc12 [Example 2, 4-(4-{3-[(3,3-Dimethyl-2,3-dihydro-benzofuran-6-carbonyl)-amino]-5-fluoro-2-methyl-phenyl}-7H-pyrrolo[2′3-d]pyrimidin-6-yl)-3,6-dihydro-2H-pyridine-1-carboxylic acid dimethylamide], which IC50 [1] is on record?
A: The IC50 was 4 nM.

Q: What about the IC50 (Btk [2]) of the same compound?
A: Its IC50 is 72 nM.

Q: How did the IC50 [1] turn out when Cc1c(NC(=O)c2cc3c(s2)CCC(C)C3)cc(F)cc1-c1ncnc2[nH]c(C3=CCN(C(=O)N(C)C)CC3)cc12 (stereo not shown) [Example 3, 4-(4-{5-Fluoro-2-methyl-3-[(5-methyl-4,5,6,7-tetrahydro-benzo[b]thiophene-2-carbonyl)-amino]-phenyl}-7H-pyrrolo[2′3-d]pyrimidin-6-yl)-3,6-dihydro-2H-pyridine-1-carboxylic acid dimethylamide] was run?
A: Its IC50 is 5 nM.

Q: And the IC50 (Btk [3])?
A: Its IC50 is 27 nM.

Q: Which IC50 [1] does the source give for Cc1c(NC(=O)c2ccc(C(C)(C)CO)cc2)cc(F)cc1-c1ncnc2[nH]c(C3=CCN(C(=O)N(C)C)CC3)cc12 [Example 6, 4-(4-{5-Fluoro-3-[4-(2-hydroxy-1,1-dimethyl-ethyl)-benzoylamino]-2-methyl-phenyl}-7H-pyrrolo[2,3-d]pyrimidin-6-yl)-3,6-dihydro-2H-pyridine-1-carboxylic acid dimethylamide] here?
A: Its IC50 is 2 nM.

Q: And the IC50 (Btk [2])?
A: The IC50 was 112 nM.

Q: CN(C)C(=O)N1CC=C(c2cc3c(-c4cccc(NC(=O)c5ccc(C(C)(C)O)cc5F)c4CO)ncnc3[nH]2)CC1 [Example 16, 4-(4-{3-[2-Fluoro-4-(1-hydroxy-1-methyl-ethyl)-benzoylamino]-2-hydroxymethyl-phenyl}-7H-pyrrolo[2,3-d]pyrimidin-6-yl)-3,6-dihydro-2H-pyridine-1-carboxylic acid dimethylamide] was tested. Which IC50 [1] did it give?
A: The IC50 was 2 nM.

Q: What about the IC50 (Btk [3]) of the same compound?
A: Its IC50 is 69 nM.

Q: For CN(C)C(=O)N1CC=C(c2cc3c(-c4cccc(NC(=O)c5ccc(C6CC6)cc5)c4CO)ncnc3[nH]2)CC1 [Example 17, 4-{4-[3-(4-Cyclopropyl-benzoylamino)-2-hydroxymethyl-phenyl]-7H-pyrrolo[2,3-d]pyrimidin-6-yl}-3,6-dihydro-2H-pyridine-1-carboxylic acid dimethylamide], which IC50 [1] is on record?
A: The IC50 was 1 nM.

Q: What about the IC50 (Btk [2]) of the same compound?
A: Its IC50 is 100 nM.

Q: For Cc1c(NC(=O)c2ccc(C3CC3)cc2)cc(F)cc1-c1ncnc2[nH]c(C3=CCN(C(=O)CO)CC3)cc12 [Example 32, 4-Cyclopropyl-N-(5-fluoro-3-{6-[1-(2-hydroxy-actyl)-1,2,3,6-tetrahydro-pyridin-4-yl]-7H-pyrrolo[2,3-d]pyrimidin-4-yl}-2-methyl-phenyl)benzamide], which IC50 [1] is on record?
A: The IC50 was 7 nM.

Q: What about the IC50 (Btk [2]) of the same compound?
A: The IC50 was 414 nM.

Q: With CC(C)(C)c1ccc(C(=O)Nc2cccc(-c3ncnc4[nH]c(C5=CCN(C(=O)CF)CC5)cc34)c2CO)cc1 [Example 38, 4-tert-Butyl-N-(3-{6-[1-(2 fluoro-acetyl)-1,2,3,6-tetrahydro-pyridin-4-yl]-7H-pyrrolo[2,3-d]pyrimidin-4-yl}-2-hydroxymethyl-phenyl)-benzamide] as the compound, how does the IC50 [1] read?
A: The IC50 was 27 nM.

Q: And the IC50 (Btk [3])?
A: Its IC50 is 20 nM.

Q: How did the IC50 [1] turn out when Cc1c(NC(=O)N2CC(OC(C)(C)C)C2)cc(F)cc1-c1ncnc2[nH]c(C3=CCN(C(=O)N(C)C)CC3)cc12 [Example 57, 4-(4-{3-[(3-tert-Butoxy-azetidine-1-carbonyl)-amino]-5-fluoro-2-methyl-phenyl}-7H-pyrrolo[2,3-d]pyrimidin-6-yl)-3,6-dihydro-2H-pyridine-1-carboxylic acid dimethylamide] was run?
A: The IC50 was 7 nM.

Q: Which IC50 [1] does the source give for Cc1c(NC(=O)N2CC(OC(C)C)C2)cc(F)cc1-c1ncnc2[nH]c(C3=CCN(C(=O)N(C)C)CC3)cc12 [Example 58, 4-(4-{5-Fluoro-3-[(3-isopropoxy-azetidine-1-carbonyl)-amino]-2-methyl-phenyl}-7H-pyrrolo[2,3-d]pyrimidin-6-yl)-3,6-dihydro-2H-pyridine-1-carboxylic acid dimethylamide] here?
A: The IC50 was 16 nM.

Q: And the IC50 (Btk [2])?
A: The IC50 was 179 nM.

Q: With Cc1c(NC(=O)N2Cc3ccc(F)cc3C2)cc(F)cc1-c1ncnc2[nH]c(C3=CCN(C(=O)N(C)C)CC3)cc12 [Example 59, 5-Fluoro-1,3-dihydro-isoindole-2-carboxylic acid {3-[6-(1-dimethylcarbamoyl-1,2,3,6-tetrahydro-pyridin-4-yl)-7H-pyrrolo[2,3-d]pyrimidin-4-yl]-5-fluoro-2-methyl-phenyl}-amide] as the compound, how does the IC50 [1] read?
A: Its IC50 is 3 nM.

Q: Which IC50 [1] does the source give for Cc1c(NC(=O)N2CC(OC(C(F)(F)F)C(F)(F)F)C2)cc(F)cc1-c1ncnc2[nH]c(C3=CCN(C(=O)N(C)C)CC3)cc12 [Example 60, 4-[4-(5-Fluoro-2-methyl-3-{[3-(2,2,2-trifluoro-1-trifluoromethyl-ethoxy)-azetidine-1-carbonyl]-amino}-phenyl)-7H-pyrrolo[2,3-d]pyrimidin-6-yl]-3,6-dihydro-2H-pyridine-1-carboxylic acid dimethylamide] here?
A: The IC50 was 8 nM.

Q: How did the IC50 [1] turn out when Cc1c(NC(=O)N2CC(OC(C)(C)C)C2)cc(F)cc1-c1ncnc2[nH]c(C3=CCOCC3)cc12 [Example 61, 3-tert-Butoxy-azetidine-1-carboxylic acid {3-[6-(3,6-dihydro-2H-pyran-4-yl)-7H-pyrrolo[2,3-d]pyrimidin-4-yl]-5-fluoro-2-methyl-phenyl}-amide] was run?
A: Its IC50 is 6 nM.

Q: Which IC50 [1] does the source give for Cc1c(-c2ncnc3[nH]c(C4=CCN(C(=O)N(C)C)CC4)cc23)ccc(F)c1NC(=O)N1CC(OC(C)(C)C)C1 [Example 63, 4-(4-{3-[(3-tert-Butoxy-azetidine-1-carbonyl)-amino]-4-fluoro-2-methyl-phenyl}-7H-pyrrolo[2,3-d]pyrimidin-6-yl)-3,6-dihydro-2H-pyridine-1-carboxylic acid dimethylamide] here?
A: Its IC50 is 2 nM.

Q: Which IC50 [1] does the source give for Cc1c(NC(=O)c2ccc(C(C)(C)C)cc2)cccc1-c1ncnc2[nH]c(C3=CCOCC3)cc12 [Example 64, 4-tert-Butyl-N-{3-[6-(3,6-dihydro-2H-pyran-4-yl)-7H-pyrrolo[2,3-d]pyrimidin-4-yl]-2-methyl-phenyl}-benzamide] here?
A: Its IC50 is 15 nM.

Q: For Cc1c(NC(=O)c2ccc(C(C)(C)C)cc2)cccc1-c1ncnc2[nH]c(C3=CCC4(CC3)OCCO4)cc12 [Example 65, 4-tert-Butyl-N-{3-[6-(1,4-dioxa-spiro[4.5]dec-7-en-8-yl)-7H-pyrrolo[2,3-d]pyrimidin-4-yl]-2-methyl-phenyl}-benzamide], which IC50 [1] is on record?
A: The IC50 was 9 nM.

Q: How did the IC50 [1] turn out when Cc1c(NC(=O)c2ccc(C(C)(C)C)cc2)cccc1-c1ncnc2[nH]c(C3=CCC(O)CC3)cc12 (stereo not shown) [Example 66, 4-tert-Butyl-N-{3-[6 (4 hydroxy-cyclohex-1-enyl)-7H-pyrrolo[2,3-d]pyrimidin-4-yl]-2-methyl-phenyl}-benzamide] was run?
A: The IC50 was 12 nM.

Q: With Cc1c(NC(=O)c2ccc(C(C)(C)C)cc2)cccc1-c1ncnc2[nH]c(C3=CCC(N(C)C)CC3)cc12 (stereo not shown) [Example 67, 4-tert-Butyl-N-{3-[6 (4 dimethylamino-cyclohex-1-enyl)-7H-pyrrolo[2,3-d]pyrimidin-4-yl]-2-methyl-phenyl}-benzamide] as the compound, how does the IC50 [1] read?
A: Its IC50 is 8 nM.
